# Target: T1, hTLR8 (human Toll-like receptor 8) (Homo sapiens, UniProt Q9NR97)
# T1 construct: host or cells: HEK-Blue hTLR8 (HEK293-derived reporter cells)
# T1 sequence (Q9NR97 27-1041): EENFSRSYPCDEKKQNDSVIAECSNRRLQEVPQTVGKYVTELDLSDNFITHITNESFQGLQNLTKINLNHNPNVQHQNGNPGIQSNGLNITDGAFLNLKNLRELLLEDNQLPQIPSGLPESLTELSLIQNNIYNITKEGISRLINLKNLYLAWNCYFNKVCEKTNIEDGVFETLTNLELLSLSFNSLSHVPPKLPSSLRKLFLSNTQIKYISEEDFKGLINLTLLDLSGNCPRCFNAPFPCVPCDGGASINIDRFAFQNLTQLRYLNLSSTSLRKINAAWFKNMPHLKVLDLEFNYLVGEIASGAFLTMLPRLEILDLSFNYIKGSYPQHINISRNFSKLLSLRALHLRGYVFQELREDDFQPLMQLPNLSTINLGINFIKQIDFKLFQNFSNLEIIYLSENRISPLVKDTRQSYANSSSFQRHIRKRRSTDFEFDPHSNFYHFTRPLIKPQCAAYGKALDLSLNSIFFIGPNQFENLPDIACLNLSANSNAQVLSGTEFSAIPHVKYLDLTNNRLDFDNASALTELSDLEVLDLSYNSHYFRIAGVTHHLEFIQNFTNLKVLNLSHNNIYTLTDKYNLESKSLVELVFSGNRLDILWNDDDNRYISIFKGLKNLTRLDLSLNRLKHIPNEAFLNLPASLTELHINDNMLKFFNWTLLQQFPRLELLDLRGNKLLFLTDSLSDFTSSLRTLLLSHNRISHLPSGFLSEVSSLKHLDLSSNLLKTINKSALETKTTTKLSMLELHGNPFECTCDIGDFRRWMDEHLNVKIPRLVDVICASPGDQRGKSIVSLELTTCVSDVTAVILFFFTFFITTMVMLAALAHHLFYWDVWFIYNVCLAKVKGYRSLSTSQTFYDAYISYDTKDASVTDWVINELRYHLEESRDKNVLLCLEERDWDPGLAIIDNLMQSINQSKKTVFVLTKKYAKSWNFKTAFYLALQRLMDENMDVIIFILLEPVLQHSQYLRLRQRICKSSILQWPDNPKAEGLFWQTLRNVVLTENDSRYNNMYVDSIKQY
# Experiment: HEK-Blue hTLR8 reporter assay (QUANTI-Blue, OD650)
# Assay type: cell-based
# Conditions: HEK-Blue hTLR8 cells, 24 h; class symbols; read-out: Reporter assay TLR8 EC50
# Procedure: In this example, the agonistic activity of the compounds of the present application on hTLR7 (human Toll-like receptor 7) and hTLR8 (human Toll-like receptor 8) was assessed; the induction activity of the compounds on human PBMCs for TNF-α and IFN-α production was assessed in human PBMCs (human peripheral blood mononuclear cells).
# All compounds were formulated in DMSO into 30 mM stock solutions and preserved at 4° C. The reference compound ([…], Cat. No. tlrl-r848-5) was purchased from InvivoGen and formulated into a 5 mg/mL stock solution in DMSO and preserved in a freezer at −20° C. HEK-Blue hTLR7 and HEK-Blue hTLR8 cell lines were purchased from InvivoGen, and human PBMCs were purchased from Shanghai Saily Biotechnology Co., Ltd. (Cat. No. XFB—HP100B).
# The major instruments used in this study were multifunctional microplate reader Flexstation III (Molecular Device), Envision (Perkin Elmer), M2e (Molecular Device), and Echo555 (Labcyte). 2.1 Agonistic activity of compounds on hTLR7 (human Toll-like receptor 7) and hTLR8 (human Toll-like receptor 8)
# Compound dilution: The compounds of the present application are diluted in DMSO, for example, to about 15 mM. The reference compound was added to the plates in sequence after dilution. The compounds were serially 3-fold diluted to 10 concentrations and added to 96-well plates in duplicate.
# For the negative control wells, DMSO was added at 0.2 μL/well, and the reference compound was added to the positive control wells. The final concentration of DMSO was 0.2%.
# Cell plating: When an 80% confluence of HEK Blue hTLR7&8 cells in the culture flask was observed under a microscope, the culture medium was discarded, 10 mL of detection medium was added, and the cells were separated by pipetting. The cells were counted on a cytometer and diluted to 500,000 cells/mL. The cells were plated at 100 μL/50,000 cells/well in the 96-well plates containing the compounds. The compounds and cells were co-incubated at 37° C. in a 5% CO2 incubator for 24 hours.
# Compound activity detection: 20 μL of cell supernatant was taken from each well and added to a plate containing QUANTI-Blue™ reagent at 180 μL/well. The plate was incubated at 37° C. for 1 hour, and the absorbance at 650 nm (OD650) was measured on the multifunctional microplate reader Flexstation III.
# Compound activity data analysis: The OD650 values were analyzed by GraphPad Prism software and fitted to give dose-response curves of the compounds. The EC50 values of compounds were calculated.
row,SMILES,EC50 [µM]
1,CCCN(OCc1ccc(N)cc1)C(=O)C1=Cc2ccc(C(=O)NC3CCCCC3)cc2N=C(N)C1 [Compound 82],≤ 0.01
2,CCCN(OCc1ccc(N)cc1)C(=O)C1=Cc2ccc(-c3cnc4c(c3)C(=O)OC4)nc2N=C(N)C1 [Compound 63],≤ 0.01
3,CCCN(OCc1ccc(N)cc1)C(=O)C1=Cc2ccc(C(=O)N3CC4(COC4)C3)cc2N=C(N)C1 [Compound 95],≤ 0.01
4,CCCN(OCc1ccc(N)cc1)C(=O)C1=Cc2ccc(C(=O)N3CCC(O)C3)cc2N=C(N)C1 (stereo not drawn) [Compound 46],0.01 to 0.1
5,CCCN(OCc1ccc(N)cc1)C(=O)C1=Cc2ccc(C(=O)N3CCN(C)CC3)cc2N=C(N)C1 [Compound 93],≤ 0.01
6,NC1=Nc2cc(-c3cncc(CO)c3)ccc2C=C(C(=O)N(CCC(F)(F)F)OCc2ccc(N)cc2)C1 [Compound 58],≤ 0.01
7,CCCN(OCc1ccc(N)cc1)C(=O)C1=Cc2ccc(C(=O)Nc3ncco3)cc2N=C(N)C1 [Compound 87],≤ 0.01
8,CCCN(OCc1ccc(N)cc1)C(=O)C1=Cc2ccc(C(=O)NC3COC3)cc2N=C(N)C1 [Compound 81],0.01 to 0.1
9,CCCN(OCc1ccc(N)cc1)C(=O)C1=Cc2ccc(C(=O)N3CCOC(CO)C3)cc2N=C(N)C1 (stereo not drawn) [Compound 47],0.01 to 0.1
10,CCCN(OCc1ccc(N)cc1)C(=O)C1=Cc2ccc(-c3cncc(CO)c3)nc2N=C(N)C1 [Compound 62],≤ 0.01
11,CCCN(OCc1ccc(N)cc1)C(=O)C1=Cc2ccc(-c3cncc(C(F)(F)F)c3)cc2N=C(N)C1 [Compound 53],0.01 to 0.1
12,CCCN(OCc1ccc(N)cc1)C(=O)C1=Cc2ccc(-c3cncc(C(=O)O)c3)cc2N=C(N)C1 [Compound 32],0.01 to 0.1
13,CCCN(OCc1ccc(N)cc1)C(=O)C1=Cc2ccc(-c3cccc(S(=O)(=O)N4CCC(O)CC4)c3)cc2N=C(N)C1 [Compound 66],≤ 0.01
14,CCCN(OCc1ccc(N)cc1)C(=O)C1=Cc2ccc(C(=O)Nc3ccc4c(c3)CNC4)cc2N=C(N)C1 [Compound 90],≤ 0.01
15,CCCN(OCc1ccc(N)cc1)C(=O)C1=Cc2ccc(-c3ccc(C(=O)N4CC[C@@H](O)C4)cc3)cc2N=C(N)C1 [Compound 42],0.01 to 0.1

# Same assay, conditions: HEK-Blue hTLR8 cells, 24 h; read-out: Reporter assay TLR8 EC50
row,SMILES,EC50 [µM]
1,CCCN(OCc1ccc(N)cc1)C(=O)C1=Cc2ccc(-c3cncc(S(N)(=O)=O)c3)cc2N=C(N)C1 [Compound 36],0.00171
2,CCCN(OCc1ccc(N)cc1)C(=O)C1=Cc2ccc(-c3cncc(N)c3)cc2N=C(N)C1 [Compound 52],0.0044
3,CCCN(OCc1ccc(N)cc1)C(=O)C1=Cc2ccc(-c3ccc(C#N)nc3)cc2N=C(N)C1 [Compound 51],0.0056
4,CCCN(OCc1ccc(N)cc1)C(=O)C1=Cc2ccc(-c3ccc4c(c3)C(=O)OC4)cc2N=C(N)C1 [Compound 43],< 0.0015
5,CCCN(OCc1ccc(N)cc1)C(=O)C1=Cc2ccc(-c3ccc(N4CCOCC4)nc3)cc2N=C(N)C1 [Compound 55],0.0023
6,CCCN(OCc1ccc(N)cc1)C(=O)C1=Cc2ccc(-c3cccc(S(N)(=O)=O)c3)cc2N=C(N)C1 [Compound 35],< 0.0015
7,CCCN(OCc1ccc(N)cc1)C(=O)C1=Cc2ccc(C(=O)Nc3cccnc3)cc2N=C(N)C1 [Compound 40],0.0025

# Test system: IFN-α production in human PBMCs
# Experiment: Induction of IFN-α in human PBMCs (ELISA)
# Assay type: cell-based
# Conditions: PBMC, 24 h, serial 3-fold dilutions, read-out: PBMC assay IFNa EC50
# Procedure: In this example, the induction activity of the compounds of the present application on human PBMCs for TNF-α and IFN-α production was assessed in human PBMCs (human peripheral blood mononuclear cells). The human PBMCs were purchased from Shanghai Saily Biotechnology Co., Ltd. (Cat. No. XFB—HP100B). PBMC cells were treated with the compounds. The compounds of the present application are diluted in DMSO, for example, to about 15 mM. The reference compound was added to the plates in sequence after diluted to 5 mg/mL. The compounds were serially 3- or 4-fold diluted to 8 concentrations and added to plates in duplicate (Table 2-1 for serial 3-fold dilutions and Table 2-2 for serial 4-fold dilutions). For the negative control wells, DMSO was added at 0.4 μL/well, and a 5 mg/mL reference compound solution was added to the positive control wells at 0.4 μL/well. The final concentration of DMSO was 0.2%. Frozen human PBMCs in cryopreservation tubes were quickly thawed in a 37° C. water bath and transferred into 50-mL centrifuge tubes. Prewarmed RPMI1640 medium was gradually added and the mixture was well mixed and centrifuged for 15 min before the supernatant was discarded. The cells were resuspended in a culture medium and counted. The cell suspension was adjusted to 2.5×10^6 cells/mL with the culture medium. Diluted cells were added at 200 μL/500,000 cells/well in 96-well plates containing the compounds. The cell plates were incubated at 37° C./5% CO2 for 24 h.
# The plate was washed 4 times, then the detection antibody was added. […] The plate was washed 4 additional times, then the enzyme was added. […] Termination of reaction: The reaction was terminated by quickly adding the stop solution at 100 μL/well. Plate reading: The reading at wavelength 450 nm was detected by an M2e instrument within 10 min after the termination.
# Compound activity data analysis: The OD450 values were converted to TNF-α and IFN-α contents by GraphPad Prism software analysis and fitted to give dose-response curves of the compounds. The EC50 values for the compounds were calculated, where the Emax values are the maximal values for TNF-α and IFN-α.
row,SMILES,EC50 [µM]
1,CCCN(OCc1ccc(N)cc1)C(=O)C1=Cc2ccc(-c3cncc(S(N)(=O)=O)c3)cc2N=C(N)C1 [Compound 36],0.00605
2,CCCN(OCc1ccc(N)cc1)C(=O)C1=Cc2ccc(-c3cncc(N)c3)cc2N=C(N)C1 [Compound 52],0.00658
3,CCCN(OCc1ccc(N)cc1)C(=O)C1=Cc2ccc(-c3ccc(C#N)nc3)cc2N=C(N)C1 [Compound 51],0.142
4,CCCN(OCc1ccc(N)cc1)C(=O)C1=Cc2ccc(-c3ccc4c(c3)C(=O)OC4)cc2N=C(N)C1 [Compound 43],0.0296
5,CCCN(OCc1ccc(N)cc1)C(=O)C1=Cc2ccc(-c3ccc(N4CCOCC4)nc3)cc2N=C(N)C1 [Compound 55],0.0434
6,CCCN(OCc1ccc(N)cc1)C(=O)C1=Cc2ccc(-c3cccc(S(N)(=O)=O)c3)cc2N=C(N)C1 [Compound 35],0.00295
7,CCCN(OCc1ccc(N)cc1)C(=O)C1=Cc2ccc(C(=O)Nc3cccnc3)cc2N=C(N)C1 [Compound 40],1.32
8,CCCN(OCc1ccc(N)cc1)C(=O)C1=Cc2ccc(-c3ccc(C(=O)N4CC[C@@H](O)C4)cc3)cc2N=C(N)C1 [Compound 42],0.0483

# Same assay, conditions: PBMC, 24 h, serial 4-fold dilutions, class symbols, read-out: PBMC assay IFNa EC50
row,SMILES,EC50 [µM]
1,CCCN(OCc1ccc(N)cc1)C(=O)C1=Cc2ccc(C(=O)NC3CCCCC3)cc2N=C(N)C1 [Compound 82],0.05 to 0.5
2,CCCN(OCc1ccc(N)cc1)C(=O)C1=Cc2ccc(-c3cnc4c(c3)C(=O)OC4)nc2N=C(N)C1 [Compound 63],0.01 to 0.05
3,CCCN(OCc1ccc(N)cc1)C(=O)C1=Cc2ccc(C(=O)N3CC4(COC4)C3)cc2N=C(N)C1 [Compound 95],0.05 to 0.5
4,CCCN(OCc1ccc(N)cc1)C(=O)C1=Cc2ccc(C(=O)N3CCC(O)C3)cc2N=C(N)C1 (stereo not drawn) [Compound 46],0.05 to 0.5
5,CCCN(OCc1ccc(N)cc1)C(=O)C1=Cc2ccc(C(=O)N3CCN(C)CC3)cc2N=C(N)C1 [Compound 93],0.05 to 0.5
6,NC1=Nc2cc(-c3cncc(CO)c3)ccc2C=C(C(=O)N(CCC(F)(F)F)OCc2ccc(N)cc2)C1 [Compound 58],0.01 to 0.05
7,CCCN(OCc1ccc(N)cc1)C(=O)C1=Cc2ccc(C(=O)Nc3ncco3)cc2N=C(N)C1 [Compound 87],0.05 to 0.5
8,CCCN(OCc1ccc(N)cc1)C(=O)C1=Cc2ccc(C(=O)NC3COC3)cc2N=C(N)C1 [Compound 81],0.01 to 0.05
9,CCCN(OCc1ccc(N)cc1)C(=O)C1=Cc2ccc(C(=O)N3CCOC(CO)C3)cc2N=C(N)C1 (stereo not drawn) [Compound 47],0.05 to 0.5
10,CCCN(OCc1ccc(N)cc1)C(=O)C1=Cc2ccc(-c3cncc(CO)c3)nc2N=C(N)C1 [Compound 62],≤ 0.01
11,CCCN(OCc1ccc(N)cc1)C(=O)C1=Cc2ccc(-c3cncc(C(F)(F)F)c3)cc2N=C(N)C1 [Compound 53],0.05 to 0.5
12,CCCN(OCc1ccc(N)cc1)C(=O)C1=Cc2ccc(-c3cncc(C(=O)O)c3)cc2N=C(N)C1 [Compound 32],0.05 to 0.5
13,CCCN(OCc1ccc(N)cc1)C(=O)C1=Cc2ccc(-c3cccc(S(=O)(=O)N4CCC(O)CC4)c3)cc2N=C(N)C1 [Compound 66],0.05 to 0.5
14,CCCN(OCc1ccc(N)cc1)C(=O)C1=Cc2ccc(C(=O)Nc3ccc4c(c3)CNC4)cc2N=C(N)C1 [Compound 90],0.05 to 0.5
15,CCCN(OCc1ccc(N)cc1)C(=O)C1=Cc2ccc(-c3ccc(C(=O)N4CC[C@@H](O)C4)cc3)cc2N=C(N)C1 [Compound 42],> 0.5
